pIC50: −log10 of the molar value.

The target of the experiment is T1, α4β7 integrin (Homo sapiens, UniProt P13612+P26010).
T1 construct: a cell line RPMI-8866, which is known to express α4β7 integrin; endogenous in cells; host or cells: RPMI-8866 (human B cell line)
T1 sequence (P13612 34-1032): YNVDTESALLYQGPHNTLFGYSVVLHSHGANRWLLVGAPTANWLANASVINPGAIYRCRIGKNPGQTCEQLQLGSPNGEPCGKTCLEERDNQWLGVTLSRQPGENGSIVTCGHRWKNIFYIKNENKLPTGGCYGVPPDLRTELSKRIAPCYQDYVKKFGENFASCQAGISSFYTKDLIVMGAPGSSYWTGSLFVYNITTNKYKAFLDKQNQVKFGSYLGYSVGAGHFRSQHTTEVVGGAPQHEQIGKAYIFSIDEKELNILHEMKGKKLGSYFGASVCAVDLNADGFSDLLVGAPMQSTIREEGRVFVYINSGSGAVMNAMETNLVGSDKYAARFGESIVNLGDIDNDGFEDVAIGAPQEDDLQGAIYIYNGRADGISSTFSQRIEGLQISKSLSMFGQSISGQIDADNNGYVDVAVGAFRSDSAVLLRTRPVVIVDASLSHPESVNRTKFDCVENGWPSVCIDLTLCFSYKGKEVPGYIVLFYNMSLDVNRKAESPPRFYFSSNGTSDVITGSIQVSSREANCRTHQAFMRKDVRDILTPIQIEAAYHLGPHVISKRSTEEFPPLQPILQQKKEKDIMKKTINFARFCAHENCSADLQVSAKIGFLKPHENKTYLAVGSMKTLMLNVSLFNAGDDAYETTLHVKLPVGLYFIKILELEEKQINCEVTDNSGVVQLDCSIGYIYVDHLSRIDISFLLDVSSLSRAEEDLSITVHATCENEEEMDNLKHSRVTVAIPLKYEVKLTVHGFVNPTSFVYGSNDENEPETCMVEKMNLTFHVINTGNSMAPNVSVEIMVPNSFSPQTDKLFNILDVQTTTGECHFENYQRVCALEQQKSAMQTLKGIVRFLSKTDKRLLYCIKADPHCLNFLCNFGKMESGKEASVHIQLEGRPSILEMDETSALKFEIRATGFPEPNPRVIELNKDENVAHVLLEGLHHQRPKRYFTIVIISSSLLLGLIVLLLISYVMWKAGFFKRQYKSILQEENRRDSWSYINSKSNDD
T1 sequence (P26010 20-798): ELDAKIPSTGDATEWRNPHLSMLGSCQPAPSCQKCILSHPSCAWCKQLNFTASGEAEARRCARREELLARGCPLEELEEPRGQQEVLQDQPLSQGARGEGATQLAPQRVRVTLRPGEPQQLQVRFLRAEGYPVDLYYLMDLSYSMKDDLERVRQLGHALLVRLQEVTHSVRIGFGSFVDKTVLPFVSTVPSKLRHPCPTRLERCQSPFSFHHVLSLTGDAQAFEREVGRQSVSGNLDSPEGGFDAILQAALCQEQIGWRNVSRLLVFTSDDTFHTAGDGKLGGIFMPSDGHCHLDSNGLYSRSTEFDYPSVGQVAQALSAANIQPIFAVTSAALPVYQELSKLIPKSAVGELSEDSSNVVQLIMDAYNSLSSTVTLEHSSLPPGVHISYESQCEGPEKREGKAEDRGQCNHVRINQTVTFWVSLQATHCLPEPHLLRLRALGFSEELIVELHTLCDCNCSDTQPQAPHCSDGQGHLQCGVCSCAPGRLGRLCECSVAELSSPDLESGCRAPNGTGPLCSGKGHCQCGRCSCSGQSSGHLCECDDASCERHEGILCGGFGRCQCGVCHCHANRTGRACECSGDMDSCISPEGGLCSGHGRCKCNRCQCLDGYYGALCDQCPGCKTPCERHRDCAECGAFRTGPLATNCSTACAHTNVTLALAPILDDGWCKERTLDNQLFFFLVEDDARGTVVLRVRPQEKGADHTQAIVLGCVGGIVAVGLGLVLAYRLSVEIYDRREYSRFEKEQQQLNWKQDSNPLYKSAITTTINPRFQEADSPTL
In words: MAdCAM-1/α4β7 integrin binding inhibitory activity evaluation test in presence of serum. It counts as cell-based. The following applies: RPMI-8866 cells, recombinant mouse MAdCAM-1/Fc, 50% human serum; read-out: α4β7 Serum Added IC50. Here is the method:
(3) MAdCAM-1/α4β7 Integrin Binding Inhibitory Activity Evaluation Test in Presence of Serum (1)
Each test substance was measured in terms of an ability to inhibit the MAdCAM-1 binding of a human B cell line, namely, a cell line RPMI-8866, which is known to express α4β7 integrin.
A solution of recombinant mouse MAdCAM-1/Fc (R&D Systems, Inc.) (1 μg/mL) diluted with a buffer A (carbonate buffer, pH 9.6) was added in an amount of 50 μL/well to a 96-well microtiter plate, followed by incubation at 4° C. overnight. After the plate was washed with PBS once, 150 μL/well of Block Ace (Snow Brand Milk Products Co., Ltd.) was added, followed by incubation at room temperature for 2 hours. After removal, the plate was washed with PBS once.
Then, 100 μL of the RPMI-8866 cells (2×10^6 cells/mL) and 100 of the test substance at each of various concentrations diluted with a binding buffer (DMEM containing 40 mM HEPES, 0.2% BSA, and 4 mM MnCl2) were added to the plate coated with the MAdCAM-1/Fc (5×10^5 cells/well) such that 50% human serum was contained at the final concentration. Then, incubation was allowed to proceed at 30° C. for 15 to 60 minutes. After the cells were bound to the wells, the plate was washed with PBS to remove unbound cells. A buffer C (PBS containing 1.5% Triton X-100) was added in an amount 50 μL/well to the plate to lyse the bound RPMI-8866 cells. After 30 μL of a substrate buffer (Promega, CytoTox 96 Non-Radioactive Cytotoxicity Assay) was added to 30 μL of the cell lysate, a reaction was allowed to proceed at room temperature in the dark for 30 minutes. After 30 μL of a stop solution (Promega, CytoTox 96 Non-Radioactive Cytotoxicity Assay) was added to each, and then an absorbance at 490 nm was measured using a plate reader. The absorbance obtained here represents a detection result of an activity of lactate dehydrogenase (LDH) eluted in the supernatant of each well, that is, the absorbance is proportional to the number of RPMI-8866 cells bound to the MAdCAM-1 and thus remaining on the plate. The test was performed in duplicate. Provided that the absorbance of the well containing no test substance was 100%, a cell binding rate with the test substance at each of the various concentrations was figured out, and a concentration IC50 which brought about 50% binding inhibition was calculated.

Usually pIC50 stands for −log10 of the IC50, conventionally taken in molar units. Take `Cn1c(=O)n(-c2ccc(C[C@H](NC(=O)c3cc(F)c(NS(=O)(=O)c4ccc(NC(=O)C(C)(C)C)cc4)cc3F)C(=O)O)cn2)c(=O)c2ccncc21` [Compound A26]: the pIC50 is 8.19.
On to `Cn1c2c(c(=O)n(-c3ccc(C[C@H](NC(=O)c4cc(F)c(NS(=O)(=O)c5ccc(NC(=O)C(C)(C)C)cc5)cc4F)C(=O)O)cc3)c1=O)CCOC2` [Compound A27], for which the pIC50 is 8.62.
For the molecule `Cc1c(C)n(C)c(=O)n(-c2ccc(C[C@H](NC(=O)c3cc(F)c(NS(=O)(=O)c4ccc(NC(=O)C(C)(C)C)cc4)cc3F)C(=O)O)cn2)c1=O` [Compound A28], the pIC50 is 8.36.
For `Cn1c(=O)n(-c2ccc(C[C@H](NC(=O)c3cc(F)c(NS(=O)(=O)c4ccc(NC(=O)C5(c6ccccc6)CC5)cc4)cc3F)C(=O)O)cn2)c(=O)c2ccncc21` [Compound A29], the negative logarithm of the IC50 (pIC50) is 7.27.
For the molecule `Cc1c(C)n(C)c(=O)n(-c2ccc(C[C@H](NC(=O)c3cc(F)c(NS(=O)(=O)c4ccc(NC(=O)C5(c6ccccc6)CC5)cc4)cc3F)C(=O)O)cc2)c1=O` [Compound A30], the pIC50 is 7.37.
For the molecule `Cn1c(=O)n(-c2ccc(C[C@H](NC(=O)c3cc(F)c(NS(=O)(=O)c4ccc(NC(=O)C(C)(C)C)cn4)cc3F)C(=O)O)cn2)c(=O)c2ccncc21` [Compound A31], the pIC50 was 8.30.
To `Cc1c(C)n(C)c(=O)n(-c2ccc(C[C@H](NC(=O)c3cc(F)c(NS(=O)(=O)c4ccc(NC(=O)C(C)(C)C)cn4)cc3F)C(=O)O)cn2)c1=O` [Compound A32] belongs 8.52; to `Cn1c2c(c(=O)n(-c3ccc(C[C@H](NC(=O)c4cc(F)c(NS(=O)(=O)c5ccc(NC(=O)C(C)(C)C)cc5)cc4F)C(=O)O)cc3)c1=O)COCC2` [Compound A33], 8.77.
In the case of `Cc1c(C)n(C)c(=O)n(-c2ccc(C[C@H](NC(=O)c3cc(F)c(NS(=O)(=O)c4ccc(-n5ccc(C6CCOCC6)cc5=O)cc4)cc3F)C(=O)O)cc2)c1=O` [Compound A34], the negative logarithm of the IC50 (pIC50) was 7.62.
`Cc1c(C)n(C)c(=O)n(-c2ccc(C[C@H](NC(=O)c3cc(F)c(NS(=O)(=O)c4ccc(N(C)C(=O)C(C)(C)C)cc4)cc3F)C(=O)O)cc2)c1=O` [Compound A35]: the negative logarithm of the IC50 (pIC50) was 6.22.
In the case of `COc1cc2c(=O)n(-c3ccc(C[C@H](NC(=O)c4cc(F)c(NS(=O)(=O)c5ccc(NC(=O)C(C)(C)C)cc5)cc4F)C(=O)O)cc3)c(=O)n(C)c2cn1` [Compound A36] it was 7.74; in that of `Cc1cn(C)c(=O)n(-c2ccc(C[C@H](NC(=O)c3cc(F)c(NS(=O)(=O)c4ccc(NC(=O)C(C)(C)C)cc4)cc3F)C(=O)O)cc2)c1=O` [Compound A37], 8.18; in that of `CN1C(=O)N(c2ccc(S(=O)(=O)Nc3cc(F)c(C(=O)N[C@@H](Cc4ccc(-n5c(=O)c6ccncc6n(C)c5=O)nc4)C(=O)O)cc3F)cc2)C(=O)C1(C)C` [Compound A38], 7.70.
For `Cn1c2c(c(=O)n(-c3ccc(C[C@H](NC(=O)c4cc(F)c(NS(=O)(=O)c5ccc(NC(=O)C(C)(C)C)cc5)cc4F)C(=O)O)cn3)c1=O)CCOC2` [Compound A40], the negative-log IC50 (pIC50) is 8.37.
Regarding `CN1CCc2c(n(C)c(=O)n(-c3ccc(C[C@H](NC(=O)c4cc(F)c(NS(=O)(=O)c5ccc(NC(=O)C(C)(C)C)cc5)cc4F)C(=O)O)cc3)c2=O)C1` [Compound A41], the pIC50 was 8.72.
On to `Cn1ccc(=O)n(-c2ccc(C[C@H](NC(=O)c3cc(F)c(NS(=O)(=O)c4ccc(NC(=O)C(C)(C)C)cc4)cc3F)C(=O)O)cc2)c1=O` [Compound A42], for which the negative logarithm of the IC50 (pIC50) is 8.01.
As to `Cn1cnc2c1c(=O)n(-c1ccc(C[C@H](NC(=O)c3cc(F)c(NS(=O)(=O)c4ccc(NC(=O)C(C)(C)C)cc4)cc3F)C(=O)O)cc1)c(=O)n2C` [Compound A43], the pIC50 is 8.24.
Regarding `Cn1c2c(c(=O)n(-c3ccc(C[C@H](NC(=O)c4cc(F)c(NS(=O)(=O)c5ccc(NC(=O)C(C)(C)C)cc5)cc4F)C(=O)O)cn3)c1=O)COCC2` [Compound A44], the pIC50 was 8.59.
Consider `Cc1cc(=O)n(-c2ccc(C[C@H](NC(=O)c3cc(F)c(NS(=O)(=O)c4ccc(NC(=O)C(C)(C)C)cc4)cc3F)C(=O)O)cn2)c(=O)n1C` [Compound A45], for which the pIC50 was 8.08.
Consider `Cc1cc(=O)n(-c2ccc(C[C@H](NC(=O)c3cc(F)c(NS(=O)(=O)c4ccc(NC(=O)C(C)(C)C)cc4)cc3F)C(=O)O)cc2)c(=O)n1C` [Compound A46], for which the negative logarithm of the IC50 (pIC50) is 8.12.
To `Cn1c2c(c(=O)n(-c3ccc(C[C@H](NC(=O)c4cc(F)c(NS(=O)(=O)c5ccc(NC(=O)C(C)(C)C)cc5)cc4F)C(=O)O)nc3)c1=O)CCCC2` [Compound A47] belongs 7.82; to `Cc1c(C)n(C(C)C)c(=O)n(-c2ccc(C[C@H](NC(=O)c3cc(F)c(NS(=O)(=O)c4ccc(NC(=O)C(C)(C)C)cc4)cc3F)C(=O)O)cc2)c1=O` [Compound A48], 7.66; to `Cc1c(C)n(C)c(=O)n(-c2ccc(C[C@H](NC(=O)c3cc(F)c(NS(=O)(=O)c4cccc(NC(=O)C(C)(C)C)c4)cc3F)C(=O)O)cc2)c1=O` [Compound A49], 7.35.
Take `Cc1c(C)n(C)c(=O)n(-c2ccc(C[C@H](NC(=O)c3cc(F)c(NS(=O)(=O)c4cccc(NC(=O)C(C)(C)C)c4)cc3F)C(=O)O)cn2)c1=O` [Compound A50]: the pIC50 is 7.20.
`Cc1c(CO)c(=O)n(-c2ccc(C[C@H](NC(=O)c3cc(F)c(NS(=O)(=O)c4ccc(NC(=O)C(C)(C)C)cc4)cc3F)C(=O)O)cc2)c(=O)n1C` [Compound A51]: the pIC50 was 7.89.
As to `Cn1c2c(c(=O)n(-c3ccc(C[C@H](NC(=O)c4cc(F)c(NS(=O)(=O)c5ccc(NC(=O)C(C)(C)C)cc5)cc4F)C(=O)O)cn3)c1=O)CCCC2` [Compound A52], the pIC50 was 8.31.

These data come from patent US10562898B2, “Substituted benzenesulfonamides as inhibitors of alpha-4 beta-7 integrin activity” (EA PHARMA CO., LTD., priority 2016, dated 2020).
